From patent publication EP2599789A1, “Marker and method for diagnosing diarrhea syndrome” (Bergen Teknologioverføring AS, priority 2011, dated 2013)
Values joined by “and” are separate entries in the source; they are usually repeats but may differ in a detail not shown here. Equal values may be shown once. “Also recorded” adds a separate entry of the source.

Experiments:
[1] = test system: familial diarrhea syndrome patients; assay: Metformin treatment trial (I), pilot study in patients; assay type: in vivo, human
Experimental: A pilot study (I) with metformin was performed in six individuals from branch A, with a low peroral dose of 500 mg twice daily. The trial lasted 10 weeks, and the patients registered number of stools (and texture) during week 1, 5 and 10. The first week was without treatment and the patients received 500 mg x 2 during weeks 2- 5. Weeks 6 - 10 were without treatment. […] Number of stools per week was reduced by 40% in two patients with high stool frequency (35-36 per week). Three patients reported that stools were firmer during treatment.

[2] = test system: familial diarrhea syndrome patients; assay: Metformin treatment trial (II), pilot study with increasing metformin doses; assay type: in vivo, human; conditions: four of five individuals
Experimental: The dose given in the first metformin treatment trial (Table 2) was modest, and another pilot study with increasing metformin doses was started, including five individuals with high stool frequencies (22-42 per week). Patients with a history of ileus or inflammatory bowel disease were not included. Stool frequency was recorded continously for eight weeks. At day 1 of each week, blood samples were drawn for control of s-glucose, hemoglobin and creatinine. Symptoms and potential side-effects were followed closely by a weekly telephone call from the gastroenterologist.
The patients were without medication in week 1, and then the dose of metformin was increased each week as shown by the horizontal bars, starting at the beginning of week 2 and stopping by the end of week 5. Patient identifiers are listed in bold red letters in the panels.

[3] = target: mutant guanylate cyclase C GC-C S840I (p.Ser840Ile), transiently expressed in HEK293T cells (human); assay: cell-based or functional assay
[4] = peroral 500 mg twice daily during weeks 2-5

Compound | Side effects [1, 4] | Week 5 Stool firmness [1, 4] | Week 5 Stools per week ([1]; peroral 500 mg twice daily during weeks 2-5, week 1 (baseline) and weeks 6-10 without treatment) | stools during treatment (patient-reported firmness) ([1]; three of six patients, 500 mg twice daily) | Number of stools per week was reduced by ([1]; two patients with high stool frequency (35-36 per week), 500 mg twice daily) | dose-response effect on number of stools ([2]; weeks 2-5) | reduction in weekly average stools/day ([2]; weeks 2-5) | maximal reduction of number of stools ([2]; weeks 2-5 (Fig. 4)) | EC50 of uroguanylin for cGMP production, relative to the WT receptor (fold lower than WT) [3]
CN(C)C(=N)NC(=N)N [metformin, 1,1-dimethylbiguanide] | Intermittent nausea and None (4×) and Increased bloating | Increased | 13 (2×) and 18 and 20 (2×) and 22 | firmer | 40% | clear dose-response effect; also recorded: significant dose-response effect | 30-40% | 30-40% | 
uroguanylin peptide (from UniProt Q16661 97-112) |  |  |  |  |  |  |  |  | 6
